Measurements: US9695155B2, “Herbicidal substituted pyrimidinyloxy benzene compounds” (E. I. DU PONT DE NEMOURS AND COMPANY, priority 2013, dated 2017)

Assays:
sedge, umbrella = experiment: Test C flooded paddy test; format: in vivo, Cyperus difformis; settings: Flood, scale 0 to 100 (0 no effect, 100 complete control), 13 to 15 days
In short: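 Pots were flooded to 3 cm above the soil surface at treatment, compound applied directly to the paddy water, and that depth held throughout. Plants were kept in a greenhouse for 13 to 15 days, then visually rated against untreated controls.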

waterhemp = experiment: Test E preemergence; format: in vivo, Amaranthus rudis; settings: for Waterhemp plant response rating: scale 0 to 100 (0 no effect, 100 complete control); for Plant response rating, Waterhemp: scale 0 to 100, 0 no effect, 100 complete control
Excerpt: (§1) Seeds of plant species selected from corn (Zea mays), soybean (Glycine max), velvetleaf (Abutilon theophrasti), lambsquarters (Chenopodium album), wild poinsettia (Euphorbia heterophylla), palmer pigweed (Amaranthus palmeri), waterhemp (common waterhemp, Amaranthus rudis), surinam grass (Brachiaria decumbens), large (Lg) crabgrass (Digitaria sanguinalis), Brazilian crabgrass (Digitaria horizontalis), fall panicum (Panicum dichotomiflorum), giant foxtail (Setaria faberii), green foxtail (Setaria viridis), goosegrass (Eleusine indica), johnsongrass (Sorghum halepense), ragweed (common ragweed, Ambrosia elatior), barnyardgrass (Echinochloa crus-galli), sandbur (southern sandbur, Cenchrus echinatus), arrowleaf sida (Sida rhombifolia), Italian ryegrass (Lolium multiflorum), dayflower (Virginia (VA) dayflower, Commelina virginica), field bindweed (Convolvulus arvensis), morningglory (Ipomoea coccinea), nightshade (eastern black nightshade, Solanum ptycanthum), kochia (Kochia scoparia), yellow nutsedge (Cyperus esculentus), cocklebur (common cocklebur, Xanthium strumarium), smartweed (ladysthumb smartweed, and hairy beggarticks (Bidens pilosa), were planted into a silt loam soil and treated preemergence with test chemicals formulated in a non-phytotoxic solvent mixture which included a surfactant.
(§2) At the same time, plants from these crop and weed species and also horseweed (Canada horseweed, Conyza canadensis), waterhemp_RES1, (ALS & Triazine resistant common waterhemp, Amaranthus rudis), and waterhemp_RES2, (ALS & HPPD resistant common waterhemp, Amaranthus rudis) were planted in pots containing Redi-Earth® planting medium (Scotts Company, 14111 Scottslawn Road, Marysville, Ohio 43041) comprising spaghnum peat moss, vermiculite, wetting agent and starter nutrients were treated with postemergence applications of test chemicals formulated in the same manner. Plants ranged in height from 2 to 18 cm for postemergence treatments (1- to 4-leaf stage). Treated plants and controls were maintained in a greenhouse for 14 to 21 days, after which time all species were compared to controls and visually evaluated. Plant response ratings, summarized in Table E, are based on a scale of 0 to 100 where 0 is no effect and 100 is complete control. A dash (-) response means no test result.

goosegrass = experiment: Test E preemergence; format: in vivo, Eleusine indica; settings: for Goosegrass plant response rating: scale 0 to 100 (0 no effect, 100 complete control); for Plant response rating, Goosegrass: scale 0 to 100, 0 no effect, 100 complete control
Excerpt: as §1, §2

kochia = experiment: Test E preemergence; format: in vivo, Kochia scoparia; settings: for Kochia plant response rating: scale 0 to 100 (0 no effect, 100 complete control); for Plant response rating, Kochia: scale 0 to 100, 0 no effect, 100 complete control
Excerpt: as §1, §2

giant foxtail = experiment: Test E preemergence; format: in vivo, Setaria faberii; settings: for Foxtail, Giant plant response rating: scale 0 to 100 (0 no effect, 100 complete control); for Plant response rating, Foxtail, Giant: scale 0 to 100, 0 no effect, 100 complete control
Excerpt: as §1, §2

field bindweed = experiment: Test E preemergence; format: in vivo, Convolvulus arvensis; settings: for Field Bindweed plant response rating: scale 0 to 100 (0 no effect, 100 complete control); for Plant response rating, Field Bindweed: scale 0 to 100, 0 no effect, 100 complete control
In short: (§3)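 Compound in a non-phytotoxic solvent mixture with surfactant was applied preemergence to seeds in silt loam soil, or postemergence to plants 2 to 18 cm tall grown in peat-based potting medium. Plants were kept in a greenhouse for 14 to 21 days, then rated visually against untreated controls on a 0 (no effect) to 100 (complete control) scale.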

soybean = experiment: Test E preemergence; format: in vivo, Glycine max; settings: for Soybean plant response rating: scale 0 to 100 (0 no effect, 100 complete control); for Plant response rating, Soybean: scale 0 to 100, 0 no effect, 100 complete control
In short: as §3

corn = experiment: Test E preemergence; format: in vivo, Zea mays; settings: for Corn plant response rating: scale 0 to 100 (0 no effect, 100 complete control); for Plant response rating, Corn: scale 0 to 100, 0 no effect, 100 complete control
In short: as §3

lambsquarters = experiment: Test E preemergence; format: in vivo, Chenopodium album; settings: for Lambsquarters plant response rating: scale 0 to 100 (0 no effect, 100 complete control); for Plant response rating, Lambsquarters: scale 0 to 100, 0 no effect, 100 complete control
Excerpt: as §1, §2

velvetleaf = experiment: Test E preemergence; format: in vivo, Abutilon theophrasti; settings: for Velvetleaf plant response rating: scale 0 to 100 (0 no effect, 100 complete control); for Plant response rating, Velvetleaf: scale 0 to 100, 0 no effect, 100 complete control
In short: as §3

surinam grass = experiment: Test E preemergence; format: in vivo, Brachiaria decumbens; settings: for Surinam Grass plant response rating: scale 0 to 100 (0 no effect, 100 complete control); for Plant response rating, Surinam Grass: scale 0 to 100, 0 no effect, 100 complete control
Excerpt: as §1, §2

ragweed = experiment: Test E preemergence; format: in vivo, Ambrosia elatior; settings: for Ragweed plant response rating: scale 0 to 100 (0 no effect, 100 complete control); for Plant response rating, Ragweed: scale 0 to 100, 0 no effect, 100 complete control
Excerpt: as §1, §2

arrowleaf sida = experiment: Test E preemergence; format: in vivo, Sida rhombifolia; settings: preemergence; for Arrowleaf Sida plant response rating: scale 0 to 100 (0 no effect, 100 complete control); for Plant response rating, Arrowleaf Sida: scale 0 to 100, 0 no effect, 100 complete control
In short: as §3

Fc1cnc(Oc2cccc(C(F)F)c2-n2cc(C(F)(F)F)cn2)nc1 [Compound 164]
Plant response rating, Sedge, Umbrella (sedge, umbrella; 31 g ai/ha): 0
Plant response rating, Sedge, Umbrella (sedge, umbrella; 62 g ai/ha): 20
Plant response rating, Sedge, Umbrella (sedge, umbrella; 125 g ai/ha): 75
Plant response rating, Sedge, Umbrella (sedge, umbrella; 250 g ai/ha): 95
Waterhemp plant response rating (waterhemp; 31 g ai/ha): 65
Waterhemp plant response rating (waterhemp; 62 g ai/ha): 90
Plant response rating, Waterhemp (waterhemp; 125 g ai/ha): 90
Goosegrass plant response rating (goosegrass; 31 g ai/ha): 5
Goosegrass plant response rating (goosegrass; 62 g ai/ha): 20
Plant response rating, Goosegrass (goosegrass; 125 g ai/ha): 75
Kochia plant response rating (kochia; 31 g ai/ha): 0
Kochia plant response rating (kochia; 62 g ai/ha): 75
Plant response rating, Kochia (kochia; 125 g ai/ha): 100
Foxtail, Giant plant response rating (giant foxtail; 16 g ai/ha): 0
Foxtail, Giant plant response rating (giant foxtail; 31 g ai/ha): 20
Foxtail, Giant plant response rating (giant foxtail; 62 g ai/ha): 60
Plant response rating, Foxtail, Giant (giant foxtail; 125 g ai/ha): 95
Field Bindweed plant response rating (field bindweed; 16 g ai/ha): 0
Field Bindweed plant response rating (field bindweed; 31 g ai/ha): 0
Field Bindweed plant response rating (field bindweed; 62 g ai/ha): 30
Plant response rating, Field Bindweed (field bindweed; 125 g ai/ha): 50
Soybean plant response rating (soybean; 31 g ai/ha): 0
Soybean plant response rating (soybean; 62 g ai/ha): 15
Plant response rating, Soybean (soybean; 125 g ai/ha): 70
Corn plant response rating (corn; 16 g ai/ha): 0
Corn plant response rating (corn; 31 g ai/ha): 0
Corn plant response rating (corn; 62 g ai/ha): 0
Plant response rating, Corn (corn; 125 g ai/ha): 0
Lambsquarters plant response rating (lambsquarters; 31 g ai/ha): 75
Lambsquarters plant response rating (lambsquarters; 62 g ai/ha): 98
Plant response rating, Lambsquarters (lambsquarters; 125 g ai/ha): 100
Velvetleaf plant response rating (velvetleaf; 31 g ai/ha): 50
Velvetleaf plant response rating (velvetleaf; 62 g ai/ha): 100
Plant response rating, Velvetleaf (velvetleaf; 125 g ai/ha): 100
Surinam Grass plant response rating (surinam grass; 31 g ai/ha): 0
Surinam Grass plant response rating (surinam grass; 62 g ai/ha): 20
Plant response rating, Surinam Grass (surinam grass; 125 g ai/ha): 20
Ragweed plant response rating (ragweed; 31 g ai/ha): 0
Ragweed plant response rating (ragweed; 62 g ai/ha): 25
Plant response rating, Ragweed (ragweed; 125 g ai/ha): 60
Arrowleaf Sida plant response rating (arrowleaf sida; 16 g ai/ha): 40
Arrowleaf Sida plant response rating (arrowleaf sida; 31 g ai/ha): 100
Arrowleaf Sida plant response rating (arrowleaf sida; 62 g ai/ha): 100
Plant response rating, Arrowleaf Sida (arrowleaf sida; 125 g ai/ha): 100

Cc1cnc(Oc2cccc(C#N)c2-n2cc(C(F)(F)F)cn2)nc1 [Compound 180]
Waterhemp plant response rating (waterhemp; 31 g ai/ha): 98
Waterhemp plant response rating (waterhemp; 62 g ai/ha): 98
Plant response rating, Waterhemp (waterhemp; 125 g ai/ha): 100
Plant response rating, Waterhemp (waterhemp; 250 g ai/ha): 100
Goosegrass plant response rating (goosegrass; 31 g ai/ha): 70
Goosegrass plant response rating (goosegrass; 62 g ai/ha): 90
Plant response rating, Goosegrass (goosegrass; 125 g ai/ha): 98
Plant response rating, Goosegrass (goosegrass; 250 g ai/ha): 100
Kochia plant response rating (kochia; 31 g ai/ha): 0
Kochia plant response rating (kochia; 62 g ai/ha): 20
Plant response rating, Kochia (kochia; 125 g ai/ha): 100
Plant response rating, Kochia (kochia; 250 g ai/ha): 100
Foxtail, Giant plant response rating (giant foxtail; 31 g ai/ha): 75
Foxtail, Giant plant response rating (giant foxtail; 62 g ai/ha): 100
Plant response rating, Foxtail, Giant (giant foxtail; 125 g ai/ha): 100
Plant response rating, Foxtail, Giant (giant foxtail; 250 g ai/ha): 100
Field Bindweed plant response rating (field bindweed; 31 g ai/ha): 10
Field Bindweed plant response rating (field bindweed; 62 g ai/ha): 25
Plant response rating, Field Bindweed (field bindweed; 125 g ai/ha): 65
Plant response rating, Field Bindweed (field bindweed; 250 g ai/ha): 90
Soybean plant response rating (soybean; 31 g ai/ha): 35
Soybean plant response rating (soybean; 62 g ai/ha): 70
Plant response rating, Soybean (soybean; 125 g ai/ha): 90
Plant response rating, Soybean (soybean; 250 g ai/ha): 98
Corn plant response rating (corn; 31 g ai/ha): 0
Corn plant response rating (corn; 62 g ai/ha): 15
Plant response rating, Corn (corn; 125 g ai/ha): 40
Plant response rating, Corn (corn; 250 g ai/ha): 65
Lambsquarters plant response rating (lambsquarters; 31 g ai/ha): 98
Lambsquarters plant response rating (lambsquarters; 62 g ai/ha): 100
Plant response rating, Lambsquarters (lambsquarters; 125 g ai/ha): 100
Plant response rating, Lambsquarters (lambsquarters; 250 g ai/ha): 100
Velvetleaf plant response rating (velvetleaf; 31 g ai/ha): 35
Velvetleaf plant response rating (velvetleaf; 62 g ai/ha): 80
Plant response rating, Velvetleaf (velvetleaf; 125 g ai/ha): 100
Plant response rating, Velvetleaf (velvetleaf; 250 g ai/ha): 100
Surinam Grass plant response rating (surinam grass; 31 g ai/ha): 10
Surinam Grass plant response rating (surinam grass; 62 g ai/ha): 25
Plant response rating, Surinam Grass (surinam grass; 125 g ai/ha): 75
Plant response rating, Surinam Grass (surinam grass; 250 g ai/ha): 100
Ragweed plant response rating (ragweed; 31 g ai/ha): 70
Ragweed plant response rating (ragweed; 62 g ai/ha): 90
Plant response rating, Ragweed (ragweed; 125 g ai/ha): 100
Plant response rating, Ragweed (ragweed; 250 g ai/ha): 100
Arrowleaf Sida plant response rating (arrowleaf sida; 31 g ai/ha): 15
Arrowleaf Sida plant response rating (arrowleaf sida; 62 g ai/ha): 30
Plant response rating, Arrowleaf Sida (arrowleaf sida; 125 g ai/ha): 70
Plant response rating, Arrowleaf Sida (arrowleaf sida; 250 g ai/ha): 85
